Key:
[1] = AUC (0 to t) in Sprague-Dawley rat at 6 mg/kg, po by LC-MS/MS analysis; type: ADME, organism-based; set-up: dose 6 mg/kg; details: in vivo
[2] = target: CDK9/cyclin T1 (Homo sapiens, UniProt P50750)
Description: Inhibition of CDK9/cyclin T1 (unknown origin)

[3] = Intrinsic clearance in rat liver microsomes at 1 uM preincubated for 10 mins followed by NADPH addition and measured after 1 hr by LC-MS/MS analysis; type: ADME, Microsome; details: time 70 min, read-out: CLH
[4] = AUC (0 to t) in BALB/c mouse at 10 mg/kg, po by LC-MS/MS analysis; type: ADME, organism-based; set-up: dose 10 mg/kg; details: in vivo
[5] = test system: COLO 205; test: Antiproliferative activity against human COLO 205 cells assessed as cell growth inhibition measured after 4 to 6 days by celltiter-glo luminescent cell viability assay; type: functional, cell-based
[6] = Toxicity in human U-87 MG cells xenografted BALB/c mouse assessed as body weight loss at 10 mg/kg, po qd for 16 days relative to control; type: organism-based; details: in vivo, 384 h, time 16 day
[7] = target: Cytochrome P450 2C19 (Homo sapiens, UniProt P33261); test: Time-dependent inhibition of CYP2C19 in human liver microsomes at 10 uM in presence of NADPH by LC-MS/MS analysis; type: ADME
[8] = Half life in BALB/c mouse at 3 mg/kg, iv by LC-MS/MS analysis; type: ADME, organism-based; details: in vivo
[9] = target: CDK6/Cyclin D3 (Homo sapiens, UniProt Q00534); test: Inhibition of human full-length N-terminal GST tagged CDK6 (1 to 326 residues)/GST-tagged cyclinD3 (1 to 292 residues) expressed in baculovirus expression system using ULight-elF4E-binding protein 1 peptide as substrate measured after 30 mins by LANCE assay
[10] = test system: U-87 MG; test: Antitumor activity against human U-87 MG cells xenografted in BALB/c mouse assessed as tumor growth at 10 mg/kg, po qd for 16 days relative to control; type: functional, U-87MG ATCC; details: time 16 day
[11] = target: CYP2C19 (Homo sapiens, UniProt P33261); test: Inhibition of CYP2C19 in human liver microsomes at 10 uM measured after 20 mins in presence of NADPH by LC-MS/MS analysis relative to control; type: ADME
[12] = Half life in Sprague-Dawley rat at 6 mg/kg, po by LC-MS/MS analysis; type: ADME, organism-based; details: in vivo
[13] = Half life in Sprague-Dawley rat at 3 mg/kg, iv by LC-MS/MS analysis; type: ADME, organism-based; details: in vivo
[14] = Intrinsic clearance in human liver microsomes at 1 uM preincubated for 10 mins followed by NADPH addition and measured after 1 hr by LC-MS/MS analysis; type: ADME, Microsome; details: time 70 min, read-out: CLH
[15] = Oral bioavailability in BALB/c mouse at 10 mg/kg by LC-MS/MS analysis; type: ADME, organism-based; details: in vivo
[16] = Half life in BALB/c mouse at 10 mg/kg, po by LC-MS/MS analysis; type: ADME, organism-based; details: in vivo
[17] = target: CYP2D6 (Homo sapiens, UniProt P10635); test: Inhibition of CYP2D6 in human liver microsomes at 10 uM measured after 20 mins in presence of NADPH by LC-MS/MS analysis relative to control; type: ADME
[18] = target: Cyclin-dependent kinase 1/cyclin B1 (Homo sapiens, UniProt P06493)
Description: Inhibition of CDK1/cyclin B (unknown origin)

[19] = Cmax in Sprague-Dawley rat at 6 mg/kg, po by LC-MS/MS analysis; type: ADME, organism-based; set-up: route oral, dose 6 mg/kg; details: in vivo
[20] = Volume of distribution at steady state in BALB/c mouse at 3 mg/kg, iv by LC-MS/MS analysis; type: ADME, organism-based; details: in vivo, read-out: Vdss
[21] = target: Cyclin-dependent kinase 7/ cyclin H (Homo sapiens, UniProt P50613); test: Inhibition of CDK7/cyclin H (unknown origin); type: protein-complex assay
[22] = AUC (0 to t) in Sprague-Dawley rat at 3 mg/kg, iv by LC-MS/MS analysis; type: ADME, organism-based; set-up: dose 3 mg/kg; details: in vivo
[23] = target: T1, CYP1A2 (Homo sapiens, UniProt P05177); test: Inhibition of CYP1A2 in human liver microsomes at 10 uM measured after 20 mins in presence of NADPH by LC-MS/MS analysis relative to control; type: ADME
T1 sequence (P05177 whole entry): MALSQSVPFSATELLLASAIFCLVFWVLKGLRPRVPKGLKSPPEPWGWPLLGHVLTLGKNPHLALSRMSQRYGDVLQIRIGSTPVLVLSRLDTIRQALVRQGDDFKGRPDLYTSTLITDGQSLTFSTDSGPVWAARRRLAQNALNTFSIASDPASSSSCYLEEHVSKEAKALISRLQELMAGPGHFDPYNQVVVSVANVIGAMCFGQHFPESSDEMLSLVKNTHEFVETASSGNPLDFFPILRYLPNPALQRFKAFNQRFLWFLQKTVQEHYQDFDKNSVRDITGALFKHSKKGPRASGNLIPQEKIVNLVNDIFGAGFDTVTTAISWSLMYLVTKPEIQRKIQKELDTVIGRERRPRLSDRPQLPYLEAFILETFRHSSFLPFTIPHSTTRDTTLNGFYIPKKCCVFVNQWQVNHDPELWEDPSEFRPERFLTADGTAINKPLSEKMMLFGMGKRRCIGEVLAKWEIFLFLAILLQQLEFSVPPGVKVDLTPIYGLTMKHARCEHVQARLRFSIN

[24] = Volume of distribution at steady state in Sprague-Dawley rat at 3 mg/kg, iv by LC-MS/MS analysis; type: ADME, organism-based; details: in vivo, read-out: Vdss
[25] = test system: COLO 205; test: Cell cycle arrest in human COLO 205 cells assessed as accumulation at G0/G1 phase at 200 nM measured after 24 hrs by propidium iodide staining based flow cytometry relative to control; type: functional
[26] = target: CDK2/Cyclin A2 (Homo sapiens, UniProt P24941)
Description: Inhibition of CDK2/cyclin A2 (unknown origin)

[27] = target: CDK4/Cyclin D3 (Homo sapiens, UniProt P11802); test: Inhibition of recombinant human full-length N-terminal GST-fused CDK4 (1 to 303 residues)/GST-tagged CyclinD3 (1 to 292 residues) expressed in baculovirus expression system using ULight-elF4E-binding protein 1 peptide as substrate measured after 30 mins by LANCE assay
[28] = Cmax in BALB/c mouse at 10 mg/kg, po by LC-MS/MS analysis; type: ADME, organism-based; set-up: route oral, dose 10 mg/kg; details: in vivo
[29] = AUC (0 to t) in BALB/c mouse at 3 mg/kg, iv by LC-MS/MS analysis; type: ADME, organism-based; set-up: dose 3 mg/kg; details: in vivo
[30] = Oral bioavailability in Sprague-Dawley rat at 6 mg/kg by LC-MS/MS analysis; type: ADME, organism-based; details: in vivo
[31] = target: CYP3A4 (Homo sapiens, UniProt P08684); test: Inhibition of CYP3A4 in human liver microsomes at 10 uM measured after 20 mins in presence of NADPH by LC-MS/MS analysis relative to control; type: ADME
[32] = test system: MDA-MB-468; test: Antiproliferative activity against human MDA-MB-468 cells assessed as cell growth inhibition measured after 4 to 6 days by celltiter-glo luminescent cell viability assay; type: functional, cell-based
[33] = target: Cytochrome P450 3A4 (Homo sapiens, UniProt P08684); test: Time-dependent inhibition of CYP3A4 in human liver microsomes at 10 uM in presence of NADPH by LC-MS/MS analysis; type: ADME
[34] = target: Cytochrome P450 2D6 (Homo sapiens, UniProt P10635); test: Time-dependent inhibition of CYP2D6 in human liver microsomes at 10 uM in presence of NADPH by LC-MS/MS analysis; type: ADME
[35] = target: T2, Cytochrome P450 1A2 (Homo sapiens, UniProt P05177); test: Time-dependent inhibition of CYP1A2 in human liver microsomes at 10 uM in presence of NADPH by LC-MS/MS analysis; type: ADME
T2 sequence (P05177 whole entry): T1 sequence (P05177 whole entry)

[36] = test system: U-87 MG; test: Antitumor activity against human U-87 MG cells xenografted in BALB/c mouse assessed as tumor growth inhibition at 10 mg/kg, po qd for 16 days relative to control; type: functional, U-87MG ATCC; details: 384 h, time 16 day, read-out: TGI
[37] = test system: U-87 MG; test: Antiproliferative activity against human U-87 MG cells assessed as cell growth inhibition measured after 4 to 6 days by celltiter-glo luminescent cell viability assay; type: functional, cell-based, U-87MG ATCC
[38] = target: Cytochrome P450 2C9 (Homo sapiens, UniProt P11712); test: Time-dependent inhibition of CYP2C9 in human liver microsomes at 10 uM in presence of NADPH by LC-MS/MS analysis; type: ADME
[39] = target: CYP2C9 (Homo sapiens, UniProt P11712); test: Inhibition of CYP2C9 in human liver microsomes at 10 uM measured after 20 mins in presence of NADPH by LC-MS/MS analysis relative to control; type: ADME
Chain of CYP2C9 (P11712 whole entry): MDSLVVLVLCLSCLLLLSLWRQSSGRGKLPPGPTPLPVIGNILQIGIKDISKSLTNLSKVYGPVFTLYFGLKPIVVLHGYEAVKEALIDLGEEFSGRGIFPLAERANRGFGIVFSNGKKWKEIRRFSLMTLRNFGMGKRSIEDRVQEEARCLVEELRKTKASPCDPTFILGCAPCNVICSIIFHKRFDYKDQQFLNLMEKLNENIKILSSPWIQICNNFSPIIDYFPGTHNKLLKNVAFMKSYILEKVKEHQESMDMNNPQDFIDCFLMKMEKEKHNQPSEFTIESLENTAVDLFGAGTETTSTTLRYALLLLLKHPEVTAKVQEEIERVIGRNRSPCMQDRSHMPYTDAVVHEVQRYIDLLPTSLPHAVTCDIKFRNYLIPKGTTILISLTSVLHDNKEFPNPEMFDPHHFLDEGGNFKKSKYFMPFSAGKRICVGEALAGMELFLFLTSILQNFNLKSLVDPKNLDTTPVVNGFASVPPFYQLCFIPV

Chain of CYP2C19 (P33261 whole entry): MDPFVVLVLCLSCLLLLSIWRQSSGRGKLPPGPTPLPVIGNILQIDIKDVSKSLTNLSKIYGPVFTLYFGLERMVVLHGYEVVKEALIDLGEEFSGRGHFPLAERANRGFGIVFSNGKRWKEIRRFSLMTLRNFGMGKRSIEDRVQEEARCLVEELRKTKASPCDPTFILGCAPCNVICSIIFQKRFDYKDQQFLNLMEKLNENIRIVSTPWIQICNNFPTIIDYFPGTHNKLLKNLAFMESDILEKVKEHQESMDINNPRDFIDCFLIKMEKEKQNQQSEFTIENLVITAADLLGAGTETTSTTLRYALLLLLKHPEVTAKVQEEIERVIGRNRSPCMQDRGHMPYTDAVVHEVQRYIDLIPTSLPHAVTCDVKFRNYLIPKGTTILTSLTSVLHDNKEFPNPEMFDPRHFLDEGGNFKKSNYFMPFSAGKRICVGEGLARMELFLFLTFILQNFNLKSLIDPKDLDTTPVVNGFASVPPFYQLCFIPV
Chain of Cytochrome P450 2C19 (P33261 whole entry): as above
Chain of CDK9/cyclin T1 (O60563 whole entry): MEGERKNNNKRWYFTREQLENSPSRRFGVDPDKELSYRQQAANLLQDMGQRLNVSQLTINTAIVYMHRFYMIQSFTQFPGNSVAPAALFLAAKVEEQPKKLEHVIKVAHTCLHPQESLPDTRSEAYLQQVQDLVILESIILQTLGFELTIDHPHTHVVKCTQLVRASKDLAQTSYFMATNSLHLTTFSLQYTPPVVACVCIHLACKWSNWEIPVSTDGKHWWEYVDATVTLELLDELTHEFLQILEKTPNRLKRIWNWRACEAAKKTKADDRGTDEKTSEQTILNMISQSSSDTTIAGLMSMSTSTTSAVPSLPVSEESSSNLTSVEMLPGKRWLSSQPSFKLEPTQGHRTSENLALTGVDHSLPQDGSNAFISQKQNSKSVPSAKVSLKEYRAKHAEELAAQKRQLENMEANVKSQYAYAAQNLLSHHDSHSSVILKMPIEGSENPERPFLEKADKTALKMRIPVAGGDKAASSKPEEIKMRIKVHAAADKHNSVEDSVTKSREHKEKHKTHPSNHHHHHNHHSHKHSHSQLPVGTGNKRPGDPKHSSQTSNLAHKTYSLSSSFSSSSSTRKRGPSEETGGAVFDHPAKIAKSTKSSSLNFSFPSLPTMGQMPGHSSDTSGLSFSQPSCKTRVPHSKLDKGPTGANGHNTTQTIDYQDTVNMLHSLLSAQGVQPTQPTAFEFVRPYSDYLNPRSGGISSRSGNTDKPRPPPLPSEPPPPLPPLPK
Chain of CDK9/cyclin T1 (P50750 whole entry): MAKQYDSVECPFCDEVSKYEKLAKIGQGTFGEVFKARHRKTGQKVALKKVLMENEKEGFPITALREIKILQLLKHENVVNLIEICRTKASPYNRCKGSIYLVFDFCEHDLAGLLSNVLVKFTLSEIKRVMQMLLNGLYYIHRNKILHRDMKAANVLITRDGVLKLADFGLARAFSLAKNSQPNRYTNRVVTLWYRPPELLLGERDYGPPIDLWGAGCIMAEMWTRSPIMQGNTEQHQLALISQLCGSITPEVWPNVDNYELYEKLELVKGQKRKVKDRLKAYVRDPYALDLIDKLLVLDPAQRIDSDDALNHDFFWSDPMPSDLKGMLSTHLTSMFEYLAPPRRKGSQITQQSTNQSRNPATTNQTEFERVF
Chain of Cytochrome P450 2C9 (P11712 whole entry): as the sequence (P11712 whole entry) above
Chain of CDK4/Cyclin D3 (P11802 whole entry, the tested form may be a part): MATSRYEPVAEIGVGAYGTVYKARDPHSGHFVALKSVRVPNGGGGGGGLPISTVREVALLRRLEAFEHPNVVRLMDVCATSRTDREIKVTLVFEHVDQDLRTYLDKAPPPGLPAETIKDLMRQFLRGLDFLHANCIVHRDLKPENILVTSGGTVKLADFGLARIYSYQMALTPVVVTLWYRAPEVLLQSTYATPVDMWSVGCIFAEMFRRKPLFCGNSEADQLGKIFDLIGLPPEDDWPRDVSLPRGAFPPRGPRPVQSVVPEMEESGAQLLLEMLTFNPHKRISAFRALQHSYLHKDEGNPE
Chain of CDK4/Cyclin D3 (P30281 whole entry, further chain, the tested form may be a part): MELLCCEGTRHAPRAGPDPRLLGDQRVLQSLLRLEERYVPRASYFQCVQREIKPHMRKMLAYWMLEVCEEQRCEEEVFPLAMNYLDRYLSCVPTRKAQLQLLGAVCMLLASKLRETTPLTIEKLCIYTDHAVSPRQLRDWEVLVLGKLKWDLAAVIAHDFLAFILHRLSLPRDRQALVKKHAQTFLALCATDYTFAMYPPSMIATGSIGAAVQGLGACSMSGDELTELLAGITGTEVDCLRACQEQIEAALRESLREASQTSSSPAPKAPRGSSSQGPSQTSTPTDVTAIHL
Chain of CYP2D6 (P10635 whole entry): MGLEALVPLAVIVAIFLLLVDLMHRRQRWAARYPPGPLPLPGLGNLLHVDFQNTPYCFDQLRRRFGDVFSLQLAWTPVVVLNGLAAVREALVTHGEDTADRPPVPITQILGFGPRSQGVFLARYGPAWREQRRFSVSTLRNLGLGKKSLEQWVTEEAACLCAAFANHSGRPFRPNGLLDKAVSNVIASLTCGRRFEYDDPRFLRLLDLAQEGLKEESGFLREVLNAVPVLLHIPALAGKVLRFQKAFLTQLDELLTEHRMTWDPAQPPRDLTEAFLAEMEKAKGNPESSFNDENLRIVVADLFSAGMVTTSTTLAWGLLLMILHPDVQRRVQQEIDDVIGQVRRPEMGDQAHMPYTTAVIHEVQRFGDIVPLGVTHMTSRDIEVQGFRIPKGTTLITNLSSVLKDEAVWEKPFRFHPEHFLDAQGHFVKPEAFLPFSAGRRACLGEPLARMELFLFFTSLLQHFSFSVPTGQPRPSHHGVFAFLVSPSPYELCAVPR
Chain of Cytochrome P450 2D6 (P10635 whole entry): as above
Chain of CDK6/Cyclin D3 (Q00534 whole entry, looked up, the tested form may be a part): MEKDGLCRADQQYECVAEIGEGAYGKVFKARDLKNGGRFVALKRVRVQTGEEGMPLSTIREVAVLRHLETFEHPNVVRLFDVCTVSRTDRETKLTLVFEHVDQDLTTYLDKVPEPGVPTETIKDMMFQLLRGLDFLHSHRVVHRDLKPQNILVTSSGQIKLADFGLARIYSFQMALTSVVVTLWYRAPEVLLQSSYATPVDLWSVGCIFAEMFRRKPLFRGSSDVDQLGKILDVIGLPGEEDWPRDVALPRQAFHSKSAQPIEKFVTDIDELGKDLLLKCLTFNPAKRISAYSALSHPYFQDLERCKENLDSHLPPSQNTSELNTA

CC(=O)c1c(C)c2cnc(Nc3ccc(N4CCNCC4)cc3)nc2n2cc(C(C)(C)C)nc12
AUC(0-t) [1]: 1.78 µg·h/mL | IC50 [2]: 0.221 µM | microsomal CLint at 1 µM [3]: 6 µL/min/mg | AUC(0-t) [4]: 0.775 µg·h/mL | IC50 [5]: 0.256 µM | Activity [6]: < 20% | TDI [7]: Not Active | half-life [8]: 4.64 h | IC50 [9]: 0.0048 µM | T/C [10]: 37% | inhibition at […], 10 µM [11]: 19% | half-life [12]: 4.44 h | half-life [13]: 5.57 h | microsomal CLint at 1 µM [14]: 6 µL/min/mg | bioavailability [15]: 53.1% | half-life [16]: 3.68 h | inhibition at […], 10 µM [17]: 7% | IC50 [18]: 2.08 µM | Cmax [19]: 0.17 µg/mL | Vd [20]: 33.7 L/kg | IC50 [21]: 0.204 µM | AUCt [22]: 1.334 µg·h/mL | inhibition at […], 10 µM [23]: 17% | Vd [24]: 35.7 L/kg | Activity [25]: 95.4% | IC50 [26]: 0.0603 µM | IC50 [27]: 0.0027 µM | Cmax [28]: 0.57 µg/mL | AUCt [29]: 0.44 µg·h/mL | bioavailability [30]: 66.9% | inhibition at […], 10 µM [31]: 18% | IC50 [32]: 0.984 µM | TDI [33]: Not Active | TDI [34]: Not Active | TDI [35]: Active | inhibition in vivo at 10 mg/kg [36]: 70% | IC50 [37]: 0.0493 µM | TDI [38]: Not Active | inhibition at […], 10 µM [39]: 12%

Source: ChEMBL document CHEMBL4765279, “Discovery of a novel series of imidazo[1',2':1,6]pyrido[2,3-d]pyrimidin derivatives as potent cyclin-dependent kinase 4/6 inhibitors” (Eur J Med Chem, 2020)
